Values of other authors, collected in patent US10736931B2, “Pharmaceutical compositions comprising plant extracts and methods for reducing duration of a common cold using same” (Matrixx Initiatives, Inc., priority 2014, dated 2020).

Molecular target: acetylcholine esterase (Homo sapiens, UniProt P22303)
Details: ceramides from L. operculata; Feitosa et al. 2011

acetylcholine esterase, sequence (P22303 32-614): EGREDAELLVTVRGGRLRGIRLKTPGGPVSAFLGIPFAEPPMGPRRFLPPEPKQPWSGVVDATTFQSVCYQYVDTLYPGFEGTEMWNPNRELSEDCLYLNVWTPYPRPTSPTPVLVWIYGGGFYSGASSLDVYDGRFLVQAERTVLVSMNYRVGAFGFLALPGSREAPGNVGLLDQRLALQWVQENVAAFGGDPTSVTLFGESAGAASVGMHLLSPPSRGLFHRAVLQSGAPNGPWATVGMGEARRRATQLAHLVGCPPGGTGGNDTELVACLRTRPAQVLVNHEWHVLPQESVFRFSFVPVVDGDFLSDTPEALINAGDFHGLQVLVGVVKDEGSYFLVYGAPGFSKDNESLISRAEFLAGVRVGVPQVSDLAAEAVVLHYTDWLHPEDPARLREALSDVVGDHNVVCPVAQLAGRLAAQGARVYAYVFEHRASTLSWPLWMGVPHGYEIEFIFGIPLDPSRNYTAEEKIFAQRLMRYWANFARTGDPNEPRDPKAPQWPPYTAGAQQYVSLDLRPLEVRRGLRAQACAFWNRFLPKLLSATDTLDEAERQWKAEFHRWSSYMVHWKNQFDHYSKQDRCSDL

ceramides
acetylcholine esterase inhibitory effects: high
